By melting point is commonly meant the temperature of the solid-liquid transition.

Some results are limits rather than exact numbers.

`CCCN1C(=O)OC2(CCN(CC=C(c3ccc(F)cc3)c3ccc(F)cc3)CC2)C1(C)O` (centres undefined) came in with a melting point of 128 to 129 °C.

Take `CON=C(C)CC(C)(C)Cn1c(C)nc2c(N)nc3ccccc3c21`: the melting point fell in the range of 193 to 195 °C.

Turning to `C#Cc1ccc(Oc2ccc(C(=O)C(=O)c3cccc(C(=O)C(=O)c4ccc(Oc5ccc(C#C)cc5)cc4)c3)cc2)cc1`, the melting point fell in the range of 120 to 121 °C.

`COc1cc(Br)c(O)c(/C=C/C(=O)/C=C/c2cc(OC)cc(Br)c2O)c1` showed a melting point of 155 to 157 °C.

In turn, `CN(C)C1CCN(c2nc(N3CCc4ccccc4C3)c3ncnc(N4CCOCC4)c3n2)CC1` displayed a melting point of 49 to 53 °C.

On to `CC1(CF)C(=O)N(c2ccc(C#N)c(C(F)(F)F)c2)C(=O)N1CC#N` (centres undefined), for which the melting point stood at 175 °C.

As to `NC(=O)N(O)CCNC(=O)c1ccc(Oc2ccccc2)cc1`, the melting point lay in the range of 185 to 186 °C.

In the case of `CCOC(=O)c1nc(-c2cccc([N+](=O)[O-])c2)[nH]c1-c1ccc(OC)cc1`, the melting point was 208 to 210 °C.

Consider `O=C(CC12CC3CC(CC(C3)C1)C2)Nc1c(Cl)ccc2ncccc12`, for which the melting point was 219 to 220 °C.

`O=C(c1ccccc1)c1ccccc1N1C=NC(CCl)(C(=O)O)N1` (centres undefined) showed a melting point of 90 to 93 °C.

As to `CC(=O)C1COc2ccccc2C1=O` (centres undefined), the melting point fell in the range of 81 to 83 °C.

Regarding `COc1ccc(-c2ccc3[nH]c(C(=O)O)cc3c2)cc1`, the melting point is over 230 °C.

Molecule `CCOC(=O)C1=C(C)N(CCOC(=O)c2ccccc2)C(=O)NC1c1ccccc1` (centres undefined) registered a melting point of 129 °C.

As to `CCOP(=O)(OCC)C(CCc1cc(C)nc2c(C#N)c(-c3ccccc3)nn12)P(=O)(OCC)OCC`, the melting point came to 107 °C.

Take `NC(=O)N1CC(Oc2ccc(C(F)(F)F)cc2Cl)C1`: the melting point is 156 to 159 °C.

As for `O=CNCC1CCc2ccccc2N(C=O)C1` (centres undefined), the melting point is 128 °C.

Molecule `CC(C)ON=C(c1cccc(O)c1)n1cncn1` displayed a melting point of 160 to 163 °C.

Consider `CCSCc1ccc2[nH]c(NC(=O)OC)nc2c1`, for which the melting point lay in the range of 229 to 231 °C.

`Cc1c(Cl)ccc2c3c([nH]c12)[C@@]1(CC(=O)O)CC[C@H]1CC3` (relative stereo) had a melting point of 189 to 190 °C.

In the case of `Nc1nn2ccccc2c1N`, the melting point was determined as 190 °C.

In turn, `COc1cc(OC)nc(C(C)c2ccccc2NS(=O)(=O)C(F)(F)F)n1` (centres undefined) had a melting point of 132 to 133 °C.

`CN1CCCCC1COC(=O)Nc1cccc(Br)c1` (centres undefined) displayed a melting point of 67.3 to 68.1 °C.

As for `Cc1ccc(C)c2c1OC(=O)C2c1ccc(C(C)C)cc1` (centres undefined), the melting point lay in the range of 107 to 109 °C.

Regarding `O=C1NN(c2nc3ccc(Cl)cc3s2)C(c2ccccc2)C1c1ccccc1` (centres undefined), the melting point was 170 to 172 °C.

For `CC(=O)CSc1ccc(Cl)cc1C(=O)O`, the melting point fell in the range of 139 to 140 °C.

`CCOC(c1ccccc1)(c1ccccc1)C(C)CNC` (centres undefined) yielded a melting point of 85 °C.

The molecule `CCCn1cc(Cc2ccc(C(=O)NS(=O)(=O)c3ccccc3C)cc2OC)c2cc(CCNC(=O)N3CCOCC3)ccc21` came in with a melting point of 117 to 123 °C.

For `CC1=C(C(=O)c2ccc(C(C)(C)C)cc2)C(=O)C2C=CC=CC2C1=O` (centres undefined), the melting point was in the range of 64 to 65 °C.

Consider `COC(=O)Cc1cn(-c2ccccc2)nc1O`, for which the melting point is 144 to 145 °C.

`COc1cc2c(-c3cc4cccnc4[nH]3)cn(C)c2cc1O` had a melting point of 250 °C.

With `O=C(Nc1ccc(F)cc1)N1CCCCN1`, the melting point lay in the range of 78.5 to 79.5 °C.

`CCOc1cc2c(O)cc(C)nc2nc1C` displayed a melting point of 281 to 284 °C.

As to `Cc1cc(C)c2c(c1)C(Nc1ncnc(N)n1)CCC2` (centres undefined), the melting point is 178 to 180 °C.

`CCc1cc2c(cc1CC)C(=O)C(Cl)=CC2=O` showed a melting point of 90 to 92 °C.

Regarding `Cc1cccc(C(=O)N(C(=O)c2cccc(C)c2)c2nc3ccccc3c(NCc3ccccc3)c2C#N)c1`, the melting point was found to be 234 °C.

In the case of `O=C(OCc1ccccc1)C(CO)N(C(=O)OCc1ccccc1)C(=O)c1ccccc1` (centres undefined), the melting point lay in the range of 94 to 95 °C.

In the case of `O=c1[nH]c2ncc(-c3ccc(-c4nnc[nH]4)cc3)nc2n1CC1CCOCC1`, the melting point was in the range of 342 to 345 °C.

For `CCC(=O)C(Cc1ccc(O)cc1)C(=O)CC`, the melting point is 44 to 54 °C.

`CC(=O)N[C@@H](CO)C(=O)NCCO[N+](=O)[O-]` came in with a melting point of 91 to 93 °C.

The molecule `COc1cccc2c1CC(=O)c1cc(C(C)C(N)=O)ccc1S2` (centres undefined) came in with a melting point of 178 to 180 °C.

For `CSC1=C(c2cccc3sccc23)N2CCN=C2S1`, the melting point is 104 to 107 °C.

For the molecule `CC(C)CC(NC(=O)C(C)CS)C(=O)O` (centres undefined), the melting point was 66 to 71 °C.

`COC(=O)C1(CCCN2CCN(c3ccccc3)CC2)Sc2cc(OC)ccc2OCC1=O` (centres undefined) came in with a melting point of 110 to 112 °C.

For the molecule `O=S(=O)(Nc1ccccc1Oc1ccc2ncccc2c1)c1ccc(Cl)cc1`, the melting point fell in the range of 151 to 152 °C.

Regarding `Fc1cccc(F)c1-c1cnnc(-c2ccc(-c3ccc(OC(F)(F)F)cc3)cc2)n1`, the melting point is 159 to 160 °C.

For `CC(NC(=O)NCCCCC1CCSS1)C(=O)O` (centres undefined), the melting point is 131 to 134 °C.

For the molecule `O=C(O)CC1Sc2ccc([N+](=O)[O-])cc2CN(CCc2ccccc2)C1=O` (centres undefined), the melting point fell in the range of 210 to 214 °C.

Molecule `On1c(C(F)(F)F)nc2nc(Br)c(Cl)c(Br)c21` yielded a melting point of 215 °C.

`COc1ccc(CN2C(=O)CC2COS(C)(=O)=O)c(OC)c1` (centres undefined) showed a melting point of 71 to 72 °C.

`CCCOC(=O)C1=C(N)NC(C)=C(C(=O)OC(C)C)C1c1cccc([N+](=O)[O-])c1` (centres undefined): the melting point was 199 °C.

`COC(=O)c1ccc(OCC(=O)NN=C2C(=O)Nc3ccc(I)cc32)cc1` had a melting point of 288 °C.

For the molecule `CCC[C@H]1CN(c2c(F)cc3c(=O)c(C(=O)O)cn([C@@H]4C[C@@H]4F)c3c2OC)C[C@H]1N`, the melting point lay within 79 to 83 °C.

As to `CN(C)c1ccc(NC2=CC(=O)C(N)=CC2=O)cc1`, the melting point is 300 °C.

`CCN(CC)C(=O)N1CCC(C(O)(c2ccc(Cl)cc2)c2ccc(Cl)cc2)CC1`: the melting point is 172 to 175 °C.

`O=C(O)c1cncc(-c2ccc3c(C(=O)NCC45CC6CC(CC(C6)C4)C5)c(Cl)ccc3n2)c1` returned a melting point of 247 °C.

The molecule `O=C(O)c1coc(Cc2ccccc2)n1` showed a melting point of 155 to 156 °C.

`O=C(N1CCOCC1)C(c1ccccc1)(c1ccccc1)c1ncc[nH]1` had a melting point of 113 °C.

For the molecule `CN1C(=S)N(c2ccc(Cl)c(Cl)c2)C(O)C1O` (centres undefined), the melting point fell in the range of 115 to 117 °C.

As for `CC(C)(C)c1ccc(C(=O)Nc2cn3cc(-c4cccnc4)ccc3n2)cn1`, the melting point was 272 to 274 °C.

In turn, `COc1ccc(-c2coc3c(C)c(O)ccc3c2=O)cc1` showed a melting point of 235 °C.

`N#CCc1cccc(CO)c1[N+](=O)[O-]` yielded a melting point of 60 to 62 °C.

On to `CCOc1cc(F)ccc1C(=O)c1ccc(OC)c(Cl)c1Cl`, for which the melting point lay within 107 to 109 °C.

`COC(=O)[C@@]12CN(Cc3ccccc3)C[C@@H]1[C@@](O)(c1ccc(SC)cc1)CC[C@H]2c1ccccc1` (racemic) displayed a melting point of 124 to 126 °C.

As for `CC1=NC2CN=C(c3ccccc3F)c3cc(Cl)ccc3C2C(=O)N1` (centres undefined), the melting point was 150 to 165 °C.

`CN(C)c1cccc(Cc2cc3cccc(-c4cccc(C(=O)NCC(N)=O)c4)c3s2)c1` registered a melting point of 149 to 151 °C.

As for `CCn1nc(NC(=O)NS(=O)(=O)c2ccccc2C(=O)OC)nc1SC`, the melting point lay within 188 to 191 °C.

As for `COC(=O)[C@H](Cc1ccc(NC(=S)NCCCc2ccccc2)cc1)NC(=O)[C@@H]1CCCN1S(=O)(=O)c1ccc(C)cc1`, the melting point is 74 to 80 °C.

The molecule `CC(=O)Nc1ccc(Sc2c(NCc3ccccc3)cc(C(=O)O)cc2S(N)(=O)=O)cc1` showed a melting point of 255 to 258 °C.

In the case of `OCc1cc2ccccc2nc1I`, the melting point lay in the range of 189 to 190 °C.

As for `CCC(CC)c1ccc(OC)c2nc(Oc3c(C)cc(Cl)cc3Cl)n(C)c12`, the melting point fell in the range of 130 to 131 °C.

`NS(=O)(=O)C1C=CC=CC1(CCNC(=O)C=Cc1cccs1)OCCOC(F)(F)F` (centres undefined) had a melting point of 203 to 205 °C.

`Cc1nc2cccc([N+](=O)[O-])c2s1` showed a melting point of 120 to 121 °C.

`O=c1[nH]c2ccc(Cl)cc2n1CCCN1CCC(O)(c2ccc(Cl)cc2)CC1`: the melting point worked out at 181 °C.

In the case of `CCOc1ccccc1C(=O)Nc1ccc(C(=O)N2CCC(F)(F)/C(=C\C(=O)N(C)C)c3ccccc32)cc1`, the melting point fell in the range of 195 to 198 °C.

As for `CC(C)(C)c1cc(C(Cl)Cl)c(Cl)c(C(C)(C)C)c1O`, the melting point was in the range of 176 to 177 °C.

With `CC(=O)NCC12CC(c3ccccc31)c1ccccc12`, the melting point lay within 184 to 186 °C.

Molecule `O=c1c2cc(F)ccc2[nH]c2c([N+](=O)[O-])ccc(Cl)c12` showed a melting point of 287 to 291 °C.

`COCCOc1ccc(CCCO)c(Oc2ncc(C(F)(F)F)cc2Cl)c1`: the melting point was in the range of 70 to 71 °C.

In the case of `CCOC(=O)c1cc(OCCOC)c(OCCOC)cc1[N+](=O)[O-]`, the melting point lay within 50 to 51 °C.

For `C[C@]1(COc2ccc(N3CCN(C(=O)NCc4ccc(OC(F)(F)F)cc4)CC3)cc2)Cn2cc([N+](=O)[O-])nc2O1`, the melting point was 166 to 168 °C.

In turn, `Clc1ccc(N2CCN(Cc3cn4cc(Cl)ccc4n3)CC2)c(Cl)c1` had a melting point of 136 to 138 °C.

Molecule `CCc1cc(C=C[N+](=O)[O-])c(OC)nc1C` displayed a melting point of 105 to 107 °C.

For `O=C(Cc1ccc(C(F)(F)F)cc1)NCc1ccc2c(c1)CN(C1CCC(=O)NC1=O)C2=O` (centres undefined), the melting point lay within 217 to 219 °C.

`CCCCc1nnc(S(=O)Cc2ccc([N+](=O)[O-])cc2)n1Cc1ccc(-c2ccccc2-c2nnn[nH]2)cc1` (centres undefined) showed a melting point of 222 to 223 °C.

The molecule `COC(=O)c1cccc([N+](=O)[O-])c1-c1ccc2ccccc2c1OC` returned a melting point of 139 to 141 °C.

Molecule `CCCc1nc(C(=O)OCC)c(C(=O)OCC)[nH]1` displayed a melting point of 81 to 83 °C.

Take `CC(=O)Nc1ccc(O)cc1Cl`: the melting point lay in the range of 128 to 129 °C.

For `COC(=O)c1c(C2CC2)nn2ccc3c(c12)CCO3`, the melting point was 170 to 172 °C.

`COc1cc(-c2ccncc2)n[nH]1` had a melting point of 140 °C.

Source of the values: a melting point compilation (Tetko et al.; mined from patent text by program, amines drawn as free bases though some values may be those of a salt).
